pIC50: −log10 of the molar value.

The target of one assay is human BACE-1 (Homo sapiens, UniProt P56817). In words: In Vitro BACE Assay run by CEREP (Example 19). Format: biochemical. As to conditions: recombinant enzyme; for inhibition at 1 µM: pH 4.5, 1.0 μM compound; for pIC50: pH 4.5; for inhibition at 10 µM: pH 4.5, 10.0 μM compound. The procedure: This assay was run by CEREP (Catalog Ref. 761-B, Referred to SOP No. 1C131; ERMOLIEFF, J., LOY, J. A., KOELSCH, G. and TANG, J., Proteolytic activation of recombinant pro-memapsin 2 (pro-BACE) studied with new fluorogenic substrates, Biochemistry, (2000) Vol. 39, p. 12450).
More specifically the assay, run at 50 μL in a 96 well plate, evaluated the effect of test compound on the activity of the human BACE-1 quantified by measuring the formation of Mca-S-E-V—N-L-NH2 from Mca-S-E-V—N-L-D-A-E-F—R—K(Dnp)-R—R—NH2, using a recombinant enzyme.
The test compound, reference compound or water (control) was added to a buffer containing 0.09 M sodium acetate (pH 4.5) and 0.25 μg BACE-1. Compound interference with the fluorimetric detection method due to autofluorescence was then checked by measurements at the wavelengths defined to evaluate the enzyme activity. Thereafter, the reaction was initiated by adding 7.5 μM of the substrate Mca-S-E-V—N-L-D-A-E-F—R—K(Dnp)-R—R—NH2 and the mixture was incubated for 60 min at 37° C. For control basal measurement, the substrate was omitted from the reaction mixture. Immediately after the incubation, the fluorescence intensity emitted by the reaction product Mca-S-E-V—N-L-NH2 was measured at λex=320 nm and λem=405 nm using a microplate reader (Ultra, Tecan). The standard inhibitory reference compound was OM99-2, which was tested in each experiment at several concentrations to obtain an inhibition curve from which its IC50 value was calculated.

A further assay has as its target T1, β-secretase (BACE) (Homo sapiens, UniProt P56817).
T1 construct: purchased Panvera
Briefly: In Vitro BACE FS1 % Inhibition Assay (Example 15). It is filed as biochemical. Particulars: FS1 substrate. The procedure: The following reagents were used in this assay: sodium acetate, PEG8000 (Sigma), DMSO, HEPES, FS1 substrate [R(AedensE)[…]-(DabcylK)R], β-secretase (BACE) (Panvera), and 96-well plate (HE microplate, Molecular Devices).
The following assay buffers were prepared and used in this assay: (1) enzyme assay buffer (0.05 M sodium acetate, pH5, 0.1% PEG8000 (w/v)), (2) substrate assay buffer (0.05 M sodium acetate, pH5), and (3) compound vehicle (30% DMSO in 50 mM HEPES, pH 7.4).
The FS1-substrate stock solution was prepared in DMSO as a 10 mg/mL solution. The FS1-substrate working solution was prepared by diluting the 10 mg/mL stock solution with substrate assay buffer to a final concentration of 300 μg/mL. The β-secretase (BACE) working solution was prepared by diluting a 0.83 mg/mL BACE stock solution with enzyme assay buffer to a final concentration of 4 μg/mL.
Test compounds were dissolved in DMSO to 10 mM. Compounds were further diluted in vehicle to various concentrations in the range of 405 μM to 4.05 μM (13.5× final compound concentration in screening plate).
The screening procedure for this assay was as follows: 15 μL of BACE working solution was pipetted into each well of a 96-well plate. To each well was then pipetted 2 μL of test compound at the selected concentration. Test compound and BACE were then mixed with a pipettor and incubated for 20 min at room temperature. To each well was then added 10 μL of the FS1 substrate working solution. The plates were then incubated for 1 hour at room temperature. The fluorescence for each well was then measured on an LJL analyst (Ex 360 nm/Em 530 nm).
The procedure for the blank (negative control) was as follows. 15 μL of assay buffer was pipetted into each well to be used as a blank control. To each well was then added 2 μL of vehicle and 10 μL of FS1-substrate working solution. The plates were then incubated for 1 hour at room temperature. The fluorescence was measured on an LJL analyst (Ex 360 nm/Em 530 nm).
The procedure for the positive control was as follows: 15 μL of BACE working solution was pipetted into each well to be used as a positive control. To each well was then pipetted 2 μL of vehicle. Vehicle and BACE were then mixed with a pipettor and incubated for 20 min at room temperature. To each well was then added 10 μL of the FS1 substrate working solution. The plates were then incubated for 1 hour at room temperature. The fluorescence (Fl) was then measured on an LJL analyst (Ex 360 nm/Em 530 nm).
For test compounds, % inhibition was determined at each concentration as follows:
% Inhibition values of less than 30% were indistinguishable from control and are listed as ≦30% in the Table below. % Inhibition values greater than 100% were indistinguishable from 100% within the error of the measurement.

human BACE-1, sequence (P56817 46-501): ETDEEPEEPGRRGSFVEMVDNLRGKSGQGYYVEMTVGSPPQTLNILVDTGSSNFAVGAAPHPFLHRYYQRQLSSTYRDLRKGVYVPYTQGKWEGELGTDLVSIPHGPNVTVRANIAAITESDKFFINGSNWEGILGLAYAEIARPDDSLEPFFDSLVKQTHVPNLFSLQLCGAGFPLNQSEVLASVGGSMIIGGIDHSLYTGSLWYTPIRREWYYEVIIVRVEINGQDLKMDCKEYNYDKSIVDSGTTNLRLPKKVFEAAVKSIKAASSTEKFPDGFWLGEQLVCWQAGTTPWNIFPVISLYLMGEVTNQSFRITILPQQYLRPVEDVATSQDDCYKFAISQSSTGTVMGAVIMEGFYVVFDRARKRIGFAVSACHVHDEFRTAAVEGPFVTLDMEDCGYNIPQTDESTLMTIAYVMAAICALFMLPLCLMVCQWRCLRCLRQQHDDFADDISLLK
T1 sequence (P56817 46-501): as above

The term inhibition denotes the percentage by which the read-out fell short of the control. For orientation: pIC50 means −log10 of the IC50, conventionally taken in molar units. In the case of `CC(C)(C)c1cc(CC(c2cc3cc(Oc4ccccc4)ccc3nc2N)C2CCOCC2)on1` (stereo not shown) [compound 152], on human BACE-1, the inhibition at 1 µM came out at 53% and the pIC50 is 6.25.
On to `Cn1ccnc1CN(CCC(C)(C)C)C(=O)CCCC(c1cc2cc(Oc3ccccc3)ccc2nc1N)C1CCOCC1` (stereo not shown) [compound 87], for which, on human BACE-1, the inhibition at 10 µM was 99% and the pIC50 was 6.59.
With `Cn1ccnc1CN(CCC(C)(C)C)C(=O)CC[C@H](c1cc2cc(Oc3ccccc3)ccc2nc1N)C1CCOCC1` [compound 86], on human BACE-1, the inhibition at 1 µM is 100% and the negative logarithm of the IC50 (pIC50) is 6.66.
Take `CC(C)C(CO)NCCCC(c1cc2cc(Oc3ccccc3)ccc2nc1N)C1CCOCC1` (stereo not shown) [compound 96]: at human BACE-1, the inhibition at 10 µM is 83% and the negative logarithm of the IC50 (pIC50) was 5.77.
Take `Nc1nc2ccc(Oc3ccccc3)cc2cc1C(CCC(=O)N(CCO)C1CCCCC1)C1CCOCC1` (stereo not shown) [compound 50]: on human BACE-1, the inhibition at 1 µM was found to be 87% and the negative-log IC50 (pIC50) was 6.13.
Consider `Cn1ccnc1CN(CCCC(c1cc2cc(Oc3ccccc3)ccc2nc1N)C1CCOCC1)C1CCCCC1` (stereo not shown) [compound 94], for which, on human BACE-1, the inhibition at 10 µM came to 95% and the pIC50 was 7.09.
`Nc1nc2ccc(Oc3ccccc3)cc2cc1C(Cc1cn(C23CC4CC(CC(C4)C2)C3)nn1)C1CCOCC1` (stereo not shown) [compound 153]: on human BACE-1, the inhibition at 1 µM was 46% and the negative logarithm of the IC50 (pIC50) is 6.17.
On to `COc1cc2nc(N)c(C(CCC(=O)NCCC(C)(C)C)C3CCOCC3)cc2cc1Oc1ccccc1` (stereo not shown) [compound 100], for which, on human BACE-1, the inhibition at 10 µM worked out at 72% and the pIC50 was 6.43.
Regarding `Nc1nc2ccc(Oc3ccccc3)cc2cc1C(CCCC(=O)N(CCN1CCOCC1)C1CCCCC1)C1CCOCC1` (stereo not shown) [compound 90], on human BACE-1, the inhibition at 10 µM stood at 94% and the pIC50 is 5.77.
Consider `CN(CC1CCCCC1)C(=O)CC[C@H](c1cc2cc(Oc3ccccc3)ccc2nc1N)C1CCOCC1` [compound 84], for which, on human BACE-1, the inhibition at 1 µM was 96% and the negative logarithm of the IC50 (pIC50) was 6.44.
Take `COc1cc2nc(N)c(C(CCCN(CCN3CCOCC3)C3CCCCC3)C3CCOCC3)cc2cc1Oc1ccccc1` (stereo not shown) [compound 108]: at human BACE-1, the inhibition at 10 µM was found to be 95% and the negative-log IC50 (pIC50) was 6.44.
Consider `CN(C(=O)CCCC(c1cc2cc(Oc3ccccc3)ccc2nc1N)C1CCCCC1)C1CCCCC1` (stereo not shown) [compound 40], for which the inhibition at 0.3 µM at human BACE-1 (pH 4.5, 0.3 μM compound) was 13%. Also, on human BACE-1, the inhibition at 1 µM turned out to be 54% and the pIC50 is 6.19.
Consider `Nc1nc2ccc(Oc3ccccc3)cc2cc1[C@@H](CCC(=O)NCC1CC1)C1CCOCC1` [compound 78], for which, at human BACE-1, the inhibition at 1 µM stood at 75% and the negative logarithm of the IC50 (pIC50) is 6.47.
For `CC(C)(C)n1cc(CC(c2cc3cc(Oc4ccccc4)ccc3nc2N)C2CCOCC2)nn1` (stereo not shown) [compound 150] the same measures were 12% and 5.48.
`COc1cc2nc(N)c(C(CCC(=O)N(C)C3CCCCC3)C3CCOCC3)cc2cc1Oc1ccccc1` (stereo not shown) [compound 101]: at human BACE-1, the inhibition at 10 µM is 85% and the pIC50 is 6.54.
`CCOC(=O)C(COCc1ccccc1)NCCCC(c1cc2cc(Oc3ccccc3)ccc2nc1N)C1CCOCC1` (stereo not shown) [compound 89]: at human BACE-1, the inhibition at 10 µM turned out to be 85% and the negative-log IC50 (pIC50) was 6.16.
On to `CC(C)(C)c1cc(CCC(c2cc3cc(Oc4ccccc4)ccc3nc2N)C2CCOCC2)on1` (stereo not shown) [compound 156], for which, on human BACE-1, the inhibition at 1 µM was determined as 85% and the pIC50 is 6.51.
`COc1cc2nc(N)c(C(CCC(=O)N(CCN3CCOCC3)C3CCCCC3)C3CCOCC3)cc2cc1Oc1ccccc1` (stereo not shown) [compound 107]: at human BACE-1, the inhibition at 10 µM is 89% and the pIC50 is 6.44.
Consider `CC(C)(C)CCN(CCCC(c1cc2cc(Oc3ccccc3)ccc2nc1N)C1CCOCC1)CCN1CCCC1` (stereo not shown) [compound 93], for which, at human BACE-1, the inhibition at 10 µM worked out at 95% and the pIC50 was 7.07.
Take `CC(C)(C)Cc1cc(CC(c2cc3cc(Oc4ccccc4)ccc3nc2N)C2CCOCC2)on1` (stereo not shown) [compound 151]: on human BACE-1, the inhibition at 1 µM stood at 90% and the pIC50 is 6.51.
Turning to `Nc1nc2ccc(Oc3ccccc3)cc2cc1C(CCCC(=O)N(CCN1CCCC1)C1CCCCC1)C1CCOCC1` (stereo not shown) [compound 91], on human BACE-1, the inhibition at 10 µM came out at 86% and the negative logarithm of the IC50 (pIC50) is 5.96.
In the case of `Cn1ccnc1CN(CCCC(c1cc2cc(Oc3ccccc3)ccc2nc1N)C1CCOCC1)CCC(C)(C)C` (stereo not shown) [Example 11, 3-[4-[(3,3-dimethyl-butyl)-(1-methyl-1H-imidazol-2-ylmethyl)-amino]-1-(tetrahydro-pyran-4-yl)-butyl]-6-phenoxy-quinolin-2-ylamine], the “% Inhibition @ 0.3 μM” value at β-secretase (BACE) (0.3 μM compound) is given as −6%. In addition, the “% Inhibition @ 1 μM” value at β-secretase (BACE) (1 μM compound) is reported as 5%. At β-secretase (BACE) (3 μM compound), the “% Inhibition @ 3 μM” value is on record as 81%.
For the molecule `CC(C)(C)CCNC(=O)CC[C@H](c1cc2cc(Oc3ccccc3)ccc2nc1N)C1CCOCC1` [compound 79], at human BACE-1, the inhibition at 1 µM is 89% and the negative logarithm of the IC50 (pIC50) was 6.54.
For the molecule `CN(CCC[C@H](c1cc2cc(Oc3ccccc3)ccc2nc1N)C1CCOCC1)CC1CCCCC1` [compound 85], on human BACE-1, the inhibition at 10 µM was determined as 98% and the pIC50 was 6.47.
Consider `CC(C)(C)CCNC(=O)CCC[C@H](c1cc2cc(Oc3ccccc3)ccc2nc1N)C1CCOCC1` [compound 82], for which, at human BACE-1, the inhibition at 1 µM stood at 85% and the negative logarithm of the IC50 (pIC50) is 6.68.
Take `CCOc1cc2nc(N)c(C(CCC(=O)NCCC(C)(C)C)C3CCOCC3)cc2cc1Oc1ccccc1` (stereo not shown) [compound 102]: on human BACE-1, the inhibition at 10 µM is 97% and the negative-log IC50 (pIC50) is 6.57.
Take `COC(=O)C(COCc1ccccc1)NCCCC(c1cc2cc(Oc3ccccc3)ccc2nc1N)C1CCOCC1` (stereo not shown) [compound 95]: at human BACE-1, the inhibition at 10 µM worked out at 95% and the negative logarithm of the IC50 (pIC50) is 6.92.
Turning to `Nc1nc2ccc(Oc3ccccc3)cc2cc1C(CCc1cn(C23CC4CC(CC(C4)C2)C3)nn1)C1CCOCC1` (stereo not shown) [compound 155], on human BACE-1, the inhibition at 1 µM was determined as 67% and the pIC50 was 5.66.

These data come from patent US7868022B2, “2-amino-quinoline derivatives useful as inhibitors of β-secretase (BACE)” (Janssen Pharmaceutica NV, priority 2006, dated 2011).
